Test [1] deals with NSCLC that have developed resistance to gefitinib or erlotinib. The settings on record: patients with NSCLC resistant to gefitinib or erlotinib; cited from earlier work.
For test [2], the system named is EGFR L858R/T790M mutant Ba/F3 Cells. Nature of the test: Ba/F3 cell proliferation (Cell Titer Glo) in combination with cetuximab. The format is cell-based, murine. As to conditions: 72 hours. The source says: The EGFR mutant L858R, Del E746_A750, L858R/T790M, Del E746_A750/T790M, L858R/T790MIC797S, and DellT790MIC797S Ba/F3 cells have been previously described (Zhou, W., et al, Nature 462, 2009, 1070-1074). All cell lines were maintained in RPM I 1640 (Cellgro; Mediatech Inc., Herndon, CA) supplemented with 10% FBS, 100 units/mL penicillin, 100 units/mL streptomycin. The EGFR 1941 R mutation was introduced via site directed mutagenesis using the Quick Change Site-Directed Mutagenesis kit (Stratagene; La Jolla, CA) according to the manufacturer's instructions. All constructs were confirmed by DNA sequencing. The constructs were shuttled into the retroviral vector JP1540 using the Cre-recombination system (Agilent Technologies, Santa Clara, CA). Ba/F3 cells were then infected with retrovirus per standard protocols, as described previously (Zhou, et al, Nature 2009). Stable clones were obtained by selection in puromycin (2 μg/ml),
Growth and inhibition of growth was assessed by the Cell Titer Glo assay (Promega, Madison, WI) and was performed according to the manufacturer's instructions. The Cell Titer Glo assay is a luminescence-based method used to determine the number of viable cells based on quantitation of the ATP present, which is directly proportional to the amount of metabolically active cells present. Ba/F3 cells of different EGFR genotypes were exposed to compounds as a single agent or in combination with […] for 72 hours and the number of cells used per experiment was determined empirically as has been previously established (Zhou, et al., Nature 2009). All experimental points were set up in triplicates in 384-well plates and all experiments were repeated at least three times. […] The curves were fitted using a non-linear regression model with a sigmoidal dose response.

The target of a further test is EGFR L858R/T790M (Homo sapiens (Human), UniProt P00533, L858R/T790M). Nature of the test: HTRF-based EGFR biochemical assay (L858R/T790M). As to conditions: 100 μM ATP. The method, then:
(§1) EGFR biochemical activity measurements were carried out using the homogeneous time-resolved fluorescence (HTRF) assay (Cisbio). Inhibitors and DMSO normalizations were first dispensed to empty black low-volume 384-well plates (Corning) with D300 digital liquid dispenser (HP). All reactions were carried out at room temperature and solutions were added to plates with a Multidrop Combi Reagent Dispenser (ThermoFisher). The reaction mixture (10 μL final volume) contained 1 μM tyrosine kinase peptide-biotin substrate and mutant EGFR in a reaction buffer (50 mM HEPES pH 7,0, 5 mM MgCl2,1 mM MnCl2, 0.01% BSA, 2 mM TCEP, 0.1 mM NaVO4). Enzyme concentrations were adjusted to accommodate varying kinase activities (L858R 0.1 nM, L858R!T790M 0,02 nM). Enzyme reaction solution (2× concentrations, 5 μL) was added to 384-well plates containing compounds and incubated for 30 mins. Enzyme reactions were initiated with the addition of […] of ATP to a final concentration of 100 μM and reacted for 20 mins. Reactions were quenched with the addition of 10 μL of phospho-tyrosine antibody-Europium(III) cryptate (1-to-180 volume ratio) and Streptavidin-XL665 (46.7 nM) in EDTA-containing detection buffer, then incubated at room temperature for 1 hour, and read with a PHERAstar plate reader (excitation =337 nm, emission =620 nm and 665 nm).

The next test deals with EGFR L858R (Homo sapiens (Human), UniProt P00533, L858R). Nature of the test: HTRF-based EGFR biochemical assay (L858R). As to conditions: 100 μM ATP. How it is done:
as §1

Chain of EGFR L858R (P00533 25-1210 L858R): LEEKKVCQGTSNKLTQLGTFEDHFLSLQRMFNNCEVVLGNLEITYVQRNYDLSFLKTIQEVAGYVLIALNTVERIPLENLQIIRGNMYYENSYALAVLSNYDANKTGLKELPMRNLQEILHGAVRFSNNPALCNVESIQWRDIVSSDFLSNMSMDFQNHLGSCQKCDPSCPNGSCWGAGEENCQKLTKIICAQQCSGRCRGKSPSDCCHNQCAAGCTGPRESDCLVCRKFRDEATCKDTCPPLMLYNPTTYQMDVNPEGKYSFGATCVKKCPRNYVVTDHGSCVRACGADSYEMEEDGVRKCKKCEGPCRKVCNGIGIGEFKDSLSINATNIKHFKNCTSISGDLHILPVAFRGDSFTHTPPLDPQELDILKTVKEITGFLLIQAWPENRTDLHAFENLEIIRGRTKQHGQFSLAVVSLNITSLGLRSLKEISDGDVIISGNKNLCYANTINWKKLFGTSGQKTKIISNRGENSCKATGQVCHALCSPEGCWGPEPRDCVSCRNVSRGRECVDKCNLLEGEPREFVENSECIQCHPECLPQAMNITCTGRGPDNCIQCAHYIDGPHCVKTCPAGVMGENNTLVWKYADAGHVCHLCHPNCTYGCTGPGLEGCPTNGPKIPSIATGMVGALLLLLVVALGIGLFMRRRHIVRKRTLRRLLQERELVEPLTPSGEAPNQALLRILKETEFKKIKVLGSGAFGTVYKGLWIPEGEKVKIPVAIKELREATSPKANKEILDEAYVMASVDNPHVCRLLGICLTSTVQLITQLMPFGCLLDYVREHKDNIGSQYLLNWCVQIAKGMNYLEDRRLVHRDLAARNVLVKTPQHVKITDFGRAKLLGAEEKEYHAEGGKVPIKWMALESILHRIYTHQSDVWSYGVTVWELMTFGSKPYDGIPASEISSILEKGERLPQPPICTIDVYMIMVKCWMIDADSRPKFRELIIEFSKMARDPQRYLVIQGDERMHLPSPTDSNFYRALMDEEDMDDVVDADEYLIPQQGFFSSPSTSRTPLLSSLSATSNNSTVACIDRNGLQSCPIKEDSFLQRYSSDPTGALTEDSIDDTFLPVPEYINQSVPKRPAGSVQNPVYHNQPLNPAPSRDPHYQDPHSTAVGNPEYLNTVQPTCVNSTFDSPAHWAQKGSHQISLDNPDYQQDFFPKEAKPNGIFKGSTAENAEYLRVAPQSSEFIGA
Chain of EGFR L858R/T790M (P00533 25-1210 T790M/L858R): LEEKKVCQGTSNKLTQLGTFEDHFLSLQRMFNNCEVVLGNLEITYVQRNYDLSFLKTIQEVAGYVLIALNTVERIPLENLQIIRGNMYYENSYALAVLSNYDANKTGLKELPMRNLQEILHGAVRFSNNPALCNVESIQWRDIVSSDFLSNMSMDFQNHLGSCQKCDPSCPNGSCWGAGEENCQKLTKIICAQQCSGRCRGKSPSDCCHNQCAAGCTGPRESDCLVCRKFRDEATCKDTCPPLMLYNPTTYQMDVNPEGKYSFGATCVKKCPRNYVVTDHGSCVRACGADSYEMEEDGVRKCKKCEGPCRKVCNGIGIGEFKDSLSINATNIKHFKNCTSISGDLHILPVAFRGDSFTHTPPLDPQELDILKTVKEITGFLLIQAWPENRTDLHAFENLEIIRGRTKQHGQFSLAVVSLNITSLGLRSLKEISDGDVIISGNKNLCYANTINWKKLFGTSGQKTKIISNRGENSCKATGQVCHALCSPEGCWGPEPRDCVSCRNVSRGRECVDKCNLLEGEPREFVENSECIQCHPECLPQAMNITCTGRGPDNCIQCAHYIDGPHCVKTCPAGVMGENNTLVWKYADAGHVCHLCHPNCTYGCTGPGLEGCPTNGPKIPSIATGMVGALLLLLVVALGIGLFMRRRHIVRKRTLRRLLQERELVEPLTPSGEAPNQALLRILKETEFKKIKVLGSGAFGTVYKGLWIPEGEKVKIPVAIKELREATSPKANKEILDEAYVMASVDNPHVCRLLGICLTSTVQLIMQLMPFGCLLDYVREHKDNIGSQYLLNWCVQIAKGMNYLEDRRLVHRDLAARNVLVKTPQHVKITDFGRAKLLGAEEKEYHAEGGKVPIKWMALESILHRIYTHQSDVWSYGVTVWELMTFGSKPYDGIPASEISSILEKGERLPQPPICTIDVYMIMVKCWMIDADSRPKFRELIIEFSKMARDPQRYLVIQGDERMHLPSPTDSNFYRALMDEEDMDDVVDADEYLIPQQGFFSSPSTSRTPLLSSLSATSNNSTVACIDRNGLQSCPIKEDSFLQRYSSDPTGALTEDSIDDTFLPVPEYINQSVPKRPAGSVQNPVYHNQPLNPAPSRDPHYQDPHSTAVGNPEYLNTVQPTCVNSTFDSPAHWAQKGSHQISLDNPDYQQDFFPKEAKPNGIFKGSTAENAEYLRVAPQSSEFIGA

Regarding `CN(C)C/C=C/C(=O)Nc1cc2c(Nc3ccc(F)c(Cl)c3)ncnc2cc1O[C@H]1CCOC1` [afatinib], in test [1], the “RR (response rate)” value is “less than 10%”.

Regarding `CN1CCN(c2ccc(-c3cnc4c(c3)C(=O)N(C(C(=O)Nc3nccs3)c3cccc(F)c3)C4)cc2)CC1` (stereo not shown) [Compound 10, 2-(3-fluorophenyl)-2-(3-(4-(4-methylpiperazin-1-yl)phenyl)-5-oxo-5,7-dihydro-6H-pyrrolo-[3,4-b]pyridin-6-yl)-N-(thiazol-2-yl)acetamide], the IC50 worked out at 100 nM in test [2], 4 nM on EGFR L858R/T790M and 46 nM at EGFR L858R.

Turning to `CN1CCN(c2ccc(-c3ccc4c(n3)C(=O)N(C(C(=O)Nc3nccs3)c3cccc(F)c3)C4)cn2)CC1` (stereo not shown) [Compound 15, 2-(3-fluorophenyl)-2-(2-(6-(4-methylpiperazin-1-yl)pyridin-3-yl)-7-oxo-5,7-dihydro-6H-pyrrolo[3,4-b]pyridin-6-yl)-N-(thiazol-2-yl)acetamide], the values for the IC50 (in test [2]; on EGFR L858R/T790M; against EGFR L858R) were 330 nM, 6 nM and 83 nM, respectively.

In the case of `CN1CCC(c2ccc(-c3cc4c(cn3)CN(C(C(=O)Nc3nccs3)c3cccc(F)c3)C4=O)cc2)CC1` (stereo not shown) [Compound 6, 2-(3-fluorophenyl)-2-(6-(4-(1-methylpiperidin-4-yl)phenyl)-1-oxo-1,3-dihydro-2H-pyrrolo-[3,4-c]pyridin-2-yl)-N-(thiazol-2-yl)acetamide], the figures for the IC50 (in test [2]; against EGFR L858R/T790M; against EGFR L858R) were 130 nM, 6 nM and 60 nM, respectively.

Values taken from patent US12377080B2, “Allosteric EGFR inhibitors and methods of use thereof” (Dana-Farber Cancer Institute, Inc., priority 2019, dated 2025).
